Reference: patent publication US20100190846A1, “MICROBICIDAL AGENT AND MICROBICIDAL COMPOSITION” (priority 2006, published 2010)
In brackets after ≈: the same amount, converted by molar mass.

Assays:
Assay in all cases: Agar dilution method microbicidal test
Assay type in all cases: cell-based
Candida sp. = system: Candida sp. On Growth on agar plate: key: +: grew; −: did not grow.
Description: (§1) As microbicidal test method for trans-p-coumaric acid, 3-hydroxypyridine, p-hydroxybenzaldehyde and vanillin, the agar dilution method was employed.
(§2) In agar dilution method, a solution in which a sample is dissolved is serially diluted several times, and each of the diluted sample solutions is mixed with agar medium to prepare plate agars having various sample concentration. Then bacteria is inoculated onto the plate agars. In cases where the sample has a microbicidal activity, the growth of the bacteria on the plates can be inhibited. The lowest concentration which can inhibit the growth of the bacteria is referred to as Minimum Inhibitory Concentration (MIC), thereby judging the degree of a microbicidal activity of the sample.
(§3) First, 400 mg of sample was dissolved in 1 mL of DMSO to prepare 400 mg/mL sample solution. Then 0.5 mL of this 400 mg/mL sample solution was diluted 2-fold to prepare 200 mg/mL sample solution. In the same manner, sample solutions of 100 mg/mL, 50.0 mg/mL, and 25.0 mg/mL were prepared. In addition, 300 mg/mL sample solution was prepared. Thereafter, 0.2 mL of these sample solutions each was mixed with 19.8 mL of BHI (Brain Heart Infusion Agar, Becton Dickinson, MD) medium, thereby preparing agar plates having the sample concentration of 4.0 mg/mL, 3.0 mg/mL, 2.0 mg/mL, 1.0 mg/mL, 0.5 mg/mL, and 0.25 mg/mL in dishes. […] Sterilized water was used for dissolving catechin, because catechin was insoluble in DMSO.
(§4) As test bacteria, 13 kinds of bacteria, i.e., Streptococcus pneumoniae, Streptococcus pyogenes, Enterococcus faecalis, Staphylococcus aureus, Escherichia coli, Salmonella sp., Yersinia enterocolitica, Vibrio parahaemolyticus, Pseudomonas aeruginosa, Bacillus cereus, Bacillus subtilis MB-32, Bacillus subtilis ATCC6633, and Candida sp., were used. These bacteria each was mixed with 2 mL of sterilized MHB^R liquid medium (Mueller Hinton Broth^R, Becton Dickinson, MD) to prepare bacterial suspension having turbidity 1 (bacterial concentration 10^8/mL). Previously, small test tubes were set into each cell of a grating and sterilized, and 1 mL of 13 bacterial suspensions were added into the small test tubes set in the grating, respectively. By using a microplanter (SAKUMA, model: MIT-P), 10 μL aliquot was collected from each test tube set in the grating and transferred to other test tube, and the transferred bacterial suspensions were diluted 100-fold (bacterial concentration 10^6/mL).
(§5) By using the microplanter, 10 μL (bacterial number […]) of this bacterial suspension was inoculated onto the plates containing the sample solution of various concentrations. The plates were incubated for 18 hours in an incubator at 37° C., and then a microbicidal activity of each compound was assessed.

Streptococcus pneumoniae = system: Streptococcus pneumoniae; on Growth on agar plate: key: +: grew; −: did not grow
Description: as §1, §2, §3, §4, §5

Escherichia coli = system: Escherichia coli; further: key: +: grew; −: did not grow
Description: as §1, §2, §3, §4, §5

Staphylococcus aureus = system: Staphylococcus aureus; on Growth on agar plate: key: +: grew; −: did not grow
Description: as §1, §2, §3, §4, §5

Streptococcus pyogenes = system: Streptococcus pyogenes; on Growth on agar plate: key: +: grew; −: did not grow
Description: as §1, §2, §3, §4, §5

Enterococcus faecalis = system: Enterococcus faecalis; further: key: +: grew; −: did not grow
Description: as §1, §2, §3, §4, §5

Yersinia enterocolitica = system: Yersinia enterocolitica; on Growth on agar plate: key: +: grew; −: did not grow
Description: as §1, §2, §3, §4, §5

[1] = system: Bacillus subtilis ATCC6633; details: Bacillus subtilis ATCC 6633; further: key: +: grew; −: did not grow
Description: as §1, §2, §3, §4, §5

Bacillus subtilis MB-32 = system: Bacillus subtilis MB-32; further: key: +: grew; −: did not grow
Description: as §1, §2, §3, §4, §5

Bacillus cereus = system: Bacillus cereus; further: key: +: grew; −: did not grow
Description: as §1, §2, §3, §4, §5

Salmonella sp. = system: Salmonella sp. Further: key: +: grew; −: did not grow.
Description: as §1, §2, §3, §4, §5

Vibrio parahaemolyticus = system: Vibrio parahaemolyticus; on Growth on agar plate: key: +: grew; −: did not grow
Description: as §1, §2, §3, §4, §5

Pseudomonas aeruginosa = system: Pseudomonas aeruginosa; on Growth on agar plate: key: +: grew; −: did not grow
Description: as §1, §2, §3, §4, §5

[2] = BHI agar, 37° C., 18 hours, read-out: MIC

Structure (SMILES): Oc1cccnc1 [3-Hydroxypyridine, 3-hydroxypyridine]
- activity (in words) (Candida sp.): had an activity
- Growth on agar plate (Candida sp.; 0.25 mg/mL): +
- Growth on agar plate (Candida sp.; 0.5 mg/mL): +
- Growth on agar plate (Candida sp.; 1.0 mg/mL): +
- Growth on agar plate (Candida sp.; 2.0 mg/mL): +
- Growth on agar plate (Candida sp.; 3.0 mg/mL): +
- Growth on agar plate (Candida sp.; 4.0 mg/mL): −
- MIC (Candida sp.; [2]): 4000 µg/mL (≈ 42.1 mM)
- activity (in words) (Streptococcus pneumoniae): had an activity
- Growth on agar plate (Streptococcus pneumoniae; 0.25 mg/mL): +
- Growth on agar plate (Streptococcus pneumoniae; 0.5 mg/mL): +
- Growth on agar plate (Streptococcus pneumoniae; 1.0 mg/mL): +
- Growth on agar plate (Streptococcus pneumoniae; 2.0 mg/mL): +
- Growth on agar plate (Streptococcus pneumoniae; 3.0 mg/mL): +
- Growth on agar plate (Streptococcus pneumoniae; 4.0 mg/mL): −
- MIC (Streptococcus pneumoniae; [2]): 4000 µg/mL (≈ 42.1 mM)
- Growth on agar plate (Escherichia coli; 0.25 mg/mL): +
- Growth on agar plate (Escherichia coli; 0.5 mg/mL): +
- Growth on agar plate (Escherichia coli; 1.0 mg/mL): +
- Growth on agar plate (Escherichia coli; 2.0 mg/mL): +
- Growth on agar plate (Escherichia coli; 3.0 mg/mL): +
- Growth on agar plate (Escherichia coli; 4.0 mg/mL): +
- activity (in words) (Staphylococcus aureus): had an activity
- Growth on agar plate (Staphylococcus aureus; 0.25 mg/mL): +
- Growth on agar plate (Staphylococcus aureus; 0.5 mg/mL): +
- Growth on agar plate (Staphylococcus aureus; 1.0 mg/mL): +
- Growth on agar plate (Staphylococcus aureus; 2.0 mg/mL): +
- Growth on agar plate (Staphylococcus aureus; 3.0 mg/mL): +
- Growth on agar plate (Staphylococcus aureus; 4.0 mg/mL): −
- MIC (Staphylococcus aureus; [2]): 4000 µg/mL (≈ 42.1 mM)
- activity (in words) (Streptococcus pyogenes): had an activity
- Growth on agar plate (Streptococcus pyogenes; 0.25 mg/mL): +
- Growth on agar plate (Streptococcus pyogenes; 0.5 mg/mL): +
- Growth on agar plate (Streptococcus pyogenes; 1.0 mg/mL): +
- Growth on agar plate (Streptococcus pyogenes; 2.0 mg/mL): +
- Growth on agar plate (Streptococcus pyogenes; 3.0 mg/mL): +
- Growth on agar plate (Streptococcus pyogenes; 4.0 mg/mL): −
- MIC (Streptococcus pyogenes; [2]): 4000 µg/mL (≈ 42.1 mM)
- Growth on agar plate (Enterococcus faecalis; 0.25 mg/mL): +
- Growth on agar plate (Enterococcus faecalis; 0.5 mg/mL): +
- Growth on agar plate (Enterococcus faecalis; 1.0 mg/mL): +
- Growth on agar plate (Enterococcus faecalis; 2.0 mg/mL): +
- Growth on agar plate (Enterococcus faecalis; 3.0 mg/mL): +
- Growth on agar plate (Enterococcus faecalis; 4.0 mg/mL): +
- activity (in words) (Yersinia enterocolitica): had an activity
- Growth on agar plate (Yersinia enterocolitica; 0.25 mg/mL): +
- Growth on agar plate (Yersinia enterocolitica; 0.5 mg/mL): +
- Growth on agar plate (Yersinia enterocolitica; 1.0 mg/mL): +
- Growth on agar plate (Yersinia enterocolitica; 2.0 mg/mL): +
- Growth on agar plate (Yersinia enterocolitica; 3.0 mg/mL): +
- Growth on agar plate (Yersinia enterocolitica; 4.0 mg/mL): −
- MIC (Yersinia enterocolitica; [2]): 4000 µg/mL (≈ 42.1 mM)
- Growth on agar plate ([1]; 0.25 mg/mL): +
- Growth on agar plate ([1]; 0.5 mg/mL): +
- Growth on agar plate ([1]; 1.0 mg/mL): +
- Growth on agar plate ([1]; 2.0 mg/mL): +
- Growth on agar plate ([1]; 3.0 mg/mL): +
- Growth on agar plate ([1]; 4.0 mg/mL): +
- Growth on agar plate (Bacillus subtilis MB-32; 0.25 mg/mL): +
- Growth on agar plate (Bacillus subtilis MB-32; 0.5 mg/mL): +
- Growth on agar plate (Bacillus subtilis MB-32; 1.0 mg/mL): +
- Growth on agar plate (Bacillus subtilis MB-32; 2.0 mg/mL): +
- Growth on agar plate (Bacillus subtilis MB-32; 3.0 mg/mL): +
- Growth on agar plate (Bacillus subtilis MB-32; 4.0 mg/mL): +
- Growth on agar plate (Bacillus cereus; 0.25 mg/mL): +
- Growth on agar plate (Bacillus cereus; 0.5 mg/mL): +
- Growth on agar plate (Bacillus cereus; 1.0 mg/mL): +
- Growth on agar plate (Bacillus cereus; 2.0 mg/mL): +
- Growth on agar plate (Bacillus cereus; 3.0 mg/mL): +
- Growth on agar plate (Bacillus cereus; 4.0 mg/mL): +
- Growth on agar plate (Salmonella sp.; 0.25 mg/mL): +
- Growth on agar plate (Salmonella sp.; 0.5 mg/mL): +
- Growth on agar plate (Salmonella sp.; 1.0 mg/mL): +
- Growth on agar plate (Salmonella sp.; 2.0 mg/mL): +
- Growth on agar plate (Salmonella sp.; 3.0 mg/mL): +
- Growth on agar plate (Salmonella sp.; 4.0 mg/mL): +
- Growth on agar plate (Vibrio parahaemolyticus; 0.25 mg/mL): +
- Growth on agar plate (Vibrio parahaemolyticus; 0.5 mg/mL): +
- Growth on agar plate (Vibrio parahaemolyticus; 1.0 mg/mL): +
- Growth on agar plate (Vibrio parahaemolyticus; 2.0 mg/mL): +
- Growth on agar plate (Vibrio parahaemolyticus; 3.0 mg/mL): +
- Growth on agar plate (Vibrio parahaemolyticus; 4.0 mg/mL): −
- MIC (Vibrio parahaemolyticus; [2]): 4000 µg/mL (≈ 42.1 mM)
- activity (in words) (Pseudomonas aeruginosa): had an activity
- Growth on agar plate (Pseudomonas aeruginosa; 0.25 mg/mL): +
- Growth on agar plate (Pseudomonas aeruginosa; 0.5 mg/mL): +
- Growth on agar plate (Pseudomonas aeruginosa; 1.0 mg/mL): +
- Growth on agar plate (Pseudomonas aeruginosa; 2.0 mg/mL): +
- Growth on agar plate (Pseudomonas aeruginosa; 3.0 mg/mL): +
- Growth on agar plate (Pseudomonas aeruginosa; 4.0 mg/mL): −
- MIC (Pseudomonas aeruginosa; [2]): 4000 µg/mL (≈ 42.1 mM)
